Measurements taken from publication PMC12040169 (PLOS Biology, 2025).

assay: in vitro; settings: human, hela cells, % viability

In order of rising viability at 28.5 h, 10 µM:
1. Nc1ncc(-c2cc(C(F)(F)F)cc(C(F)(F)F)c2)nc1Nc1ccc2[nH]ccc2c1 [CBK063651]  71.9%
2. COc1ccc(C(C)C)cc1-c1cnc(N)c(NCCCN2CCOCC2)n1 [CBK063625]  79.4%
3. Nc1ncc(-c2ccoc2)nc1Nc1ccc2[nH]ccc2c1 [CBK063868]  80.5%
4. Nc1ncc(-c2ccncc2)nc1NC1CCCCC1 [CBK063604]  80.9%
5. COc1ccc(-c2cnc(N)c(N[C@@H](C)c3ccccc3)n2)c(OC)c1OC [CBK063763]  84.9%
6. C[C@H](Nc1nc(-c2cccc(/C=C/C(=O)O)c2)cnc1N)c1ccccc1 [CBK063754]  85.2%
7. COc1cncc(-c2cnc(N)c(NC3CCOCC3)n2)c1 [CBK063846]  85.7%
8. Nc1ncc(-c2ccc(-c3ccccc3)cc2)nc1NC1CCCCC1 [CBK063572]  87.3%
9. CS(=O)(=O)c1ccc(-c2cnc(N)c(NCCCO)n2)cc1 [CBK063587]  87.3%
10. Nc1ncc(-c2ccoc2)nc1-c1ccc(C(=O)O)cc1 [CBK063972]  89.6%
11. COc1ccc(Nc2nc(-c3cccc(-c4ccccc4)c3)cnc2N)cc1 [CBK063593]  89.8%
12. C[C@@H](Nc1nc(-c2cccc3cccnc23)cnc1N)c1ccccc1 [CBK063784]  90%
13. COc1ncc(-c2cnc(N)c(-c3cccc(N(C)C)c3)n2)c(OC)n1 [CBK064017]  90.9%
14. Nc1ncc(-c2cccc(Br)c2)nc1NCCCO [CBK063603]  91.3%
15. Nc1ncc(-c2cc(C(F)(F)F)cc(C(F)(F)F)c2)nc1NCc1ccco1 [CBK063689]  91.6%
16. Nc1ncc(-c2ccc(O)cc2)nc1N1CCC[C@@H]1CO [CBK063669]  91.7%
17. Nc1ncc(-c2cccc(O)c2)nc1NCc1ccco1 [CBK063675]  92.1%
18. CN(C)c1cccc(-c2nc(-c3occc3C=O)cnc2N)c1 [CBK064001]  92.1%
19. CC(=O)c1ccc(-c2cnc(N)c(NCC(C)C)n2)s1 [CBK063764]  92.8%
20. Nc1ncc(-c2cc(C(F)(F)F)cc(C(F)(F)F)c2)nc1N1CCC[C@@H]1CO [CBK063501]  93.3%
21. Nc1ncc(-c2cccc(-c3ccccc3)c2)nc1NCc1cccnc1 [CBK063491]  93.5%
22. CN(C)CCN1CCN(c2nc(-c3cccnc3)cnc2N)CC1 [CBK063503]  93.6%
23. C[C@H](Nc1nc(-c2cccc(-c3ccccc3)c2)cnc1N)c1ccccc1 [CBK063752]  94.5%
24. NC(=O)c1cccc(-c2nc(-c3cc4ccccc4o3)cnc2N)c1 [CBK063996]  94.5%
25. COc1ccc(-c2nc(-c3ccc(C#N)cc3)cnc2N)cc1OC [CBK063885]  94.6%
26. COc1cc(-c2cnc(N)c(NCc3ccncc3)n2)cc(OC)c1OC [CBK063646]  94.8%
27. Nc1ncc(-c2cccc(F)c2)nc1Nc1ccc2[nH]ccc2c1 [CBK063851]  95.1%
28. COc1ccc(Nc2nc(-c3cccc(N)c3)cnc2N)cc1 [CBK063585]  95.9%
29. C[C@@H](Nc1nc(-c2cccc(-c3ccccc3)c2)cnc1N)c1ccccc1 [CBK063704]  96.3%
30. CC(C)CNc1nc(-c2cccc(N(C)C)c2)cnc1N [CBK063870]  97%
31. C[C@H](Nc1nc(-c2cccc(C(N)=O)c2)cnc1N)c1ccccc1 [CBK063715]  97.1%
32. Nc1ncc(-c2ccoc2)nc1NCc1ccco1 [CBK063652]  97.2%
33. Nc1ncc(-c2ccccc2)nc1NC1CCOCC1 [CBK063748]  97.3%
34. CC(=O)c1ccc(-c2nc(-c3ccoc3)cnc2N)cc1 [CBK064058]  97.3%
35. COc1ccc(C(C)C)cc1-c1cnc(N)c(NCc2ccncc2)n1 [CBK063695]  97.5%
36. CN(C)CCN1CCN(c2nc(-c3cccc(C(N)=O)c3)cnc2N)CC1 [CBK063537]  97.8%
37. CN(C)CCNc1nc(-c2cncnc2)cnc1N [CBK063661]  97.8%
38. COc1ccc(-c2nc(-c3cc4ccccc4s3)cnc2N)cc1OC [CBK063963]  98.6%
39. Nc1ncc(-c2cccc(/C=C/C(=O)O)c2)nc1N1CCN(CCO)CC1 [CBK063665]  98.7%
40. NC(=O)c1cccc(-c2cnc(N)c(NC3CCOCC3)n2)c1 [CBK063836]  98.8%
41. CC(=O)Nc1cccc(-c2cnc(N)c(N3CCC(C(=O)O)CC3)n2)c1 [CBK063657]  98.9%
42. C[C@@H](Nc1nc(-c2ccccc2)cnc1N)c1ccccc1 [CBK063728]  98.9%
43. Nc1ncc(-c2cccc3ccccc23)nc1NCc1ccccc1 [CBK063565]  99%
44. CC(C)[C@@H](CO)Nc1nc(-c2cncnc2)cnc1N [CBK063735]  99.4%
45. CC(C)[C@@H](CO)Nc1nc(-c2cccc(Br)c2)cnc1N [CBK063758]  99.5%
46. CC(C)CNc1nc(-c2cccnc2)cnc1N [CBK063780]  99.5%
47. COc1cccc(-c2cnc(N)c(NCc3ccco3)n2)c1 [CBK063684]  99.6%
48. CC(C)(CO)CNc1nc(-c2cc(C(F)(F)F)cc(C(F)(F)F)c2)cnc1N [CBK063490]  101%
49. Nc1ncc(-c2cccc(CO)c2)nc1NC1CCCCC1 [CBK063650]  101%
50. COc1ccccc1-c1cnc(N)c(N[C@@H](CO)C(C)C)n1 [CBK063749]  101%
51. Nc1ncc(-c2cccc3ncccc23)nc1NC1CCOCC1 [CBK063852]  101%
52. CCCC/C=C/c1cnc(N)c(-c2ccc(N3CCOCC3)cc2)n1 [CBK063891]  101%
53. COCOc1ccc(-c2nc(-c3cccs3)cnc2N)cc1 [CBK063977]  101%
54. Nc1ncc(-c2cccs2)nc1-c1ccc(F)c(Cl)c1 [CBK063990]  101%
55. Nc1ncc(-c2occc2C=O)nc1-c1ccc(F)c(Cl)c1 [CBK064005]  101%
56. CN(C)CCNc1nc(-c2ccncc2)cnc1N [CBK063580]  102%
57. CN(C)CCNc1nc(-c2cccc3ncccc23)cnc1N [CBK063693]  102%
58. Nc1ncc(-c2ccco2)nc1NC1CCOCC1 [CBK063806]  102%
59. Nc1ncc(-c2ccncc2)nc1-c1cccc2c1oc1ccccc12 [CBK063889]  102%
60. CC(C)(CO)CNc1nc(-c2ccsc2)cnc1N [CBK063499]  103%
61. CC(=O)Nc1cccc(-c2cnc(N)c(NCc3cccnc3)n2)c1 [CBK063562]  103%
62. COCCNc1nc(-c2cncc(OC)c2)cnc1N [CBK063606]  103%
63. Nc1ncc(-c2cccc(/C=C/C(=O)O)c2)nc1NCCCO [CBK063887]  103%
64. CN(C)c1ccc(-c2nc(-c3ccco3)cnc2N)cc1 [CBK063934]  104%
65. Nc1ncc(-c2cc(C(F)(F)F)cc(C(F)(F)F)c2)nc1NCCCO [CBK063546]  105%
66. CS(=O)(=O)c1ccc(-c2cnc(N)c(NCc3ccncc3)n2)cc1 [CBK063647]  105%
67. C[C@H](Nc1nc(-c2ccoc2)cnc1N)c1ccccc1 [CBK063707]  105%
68. C[C@@H](Nc1nc(-c2cc(C(F)(F)F)cc(C(F)(F)F)c2)cnc1N)c1ccccc1 [CBK063720]  105%
69. COc1ccc(-c2cnc(N)c(N[C@H](C)c3ccccc3)n2)c(OC)c1OC [CBK063747]  105%
70. CC(C)CNc1nc(-c2ccc(F)cc2)cnc1N [CBK063815]  105%
71. Nc1ncc(-c2ccncc2)nc1NCC1CCOCC1 [CBK063816]  105%
72. COc1ccc(-c2nc(-c3ccoc3)cnc2N)cc1OC [CBK063964]  105%
73. COCOc1ccc(-c2nc(-c3cccc(NS(C)(=O)=O)c3)cnc2N)cc1 [CBK063985]  105%
74. C[C@H](Nc1nc(-c2cc(C(F)(F)F)cc(C(F)(F)F)c2)cnc1N)c1ccccc1 [CBK063768]  106%
75. Nc1ncc(-c2ccco2)nc1-c1ccc(F)c(Cl)c1 [CBK064013]  106%
76. Nc1ncc(-c2cccc3cccnc23)nc1NC1CCCCC1 [CBK063613]  107%
77. C[C@@H](Nc1nc(-c2cccc3ncccc23)cnc1N)c1ccccc1 [CBK063755]  107%
78. CC(C)[C@H](CO)Nc1nc(-c2ccccc2)cnc1N [CBK063933]  107%
79. COc1ccc(-c2nc(-c3cccs3)cnc2N)cc1OC [CBK063981]  107%
80. COCCNc1nc(-c2ccccc2CO)cnc1N [CBK063575]  108%
81. COc1ccc(C(C)C)cc1-c1cnc(N)c(NC2CCCCC2)n1 [CBK063618]  108%
82. C[C@@H](Nc1nc(-c2ccco2)cnc1N)c1ccccc1 [CBK063737]  108%
83. Nc1ncc(-c2cccc(Br)c2)nc1NC1CCOCC1 [CBK063854]  108%
84. CCCC/C=C/c1cnc(N)c(N[C@@H](C)c2ccccc2)n1 [CBK063722]  109%
85. Nc1ncc(-c2ccccc2CO)nc1Nc1ccc2[nH]ccc2c1 [CBK063843]  109%
86. COc1cncc(-c2cnc(N)c(NCc3cccnc3)n2)c1 [CBK063531]  110%
87. Nc1ncc(-c2ccc(Cl)cc2)nc1-c1ccc(N2CCOCC2)cc1 [CBK063953]  111%
88. COCCNc1nc(-c2cc(OC)c(OC)c(OC)c2)cnc1N [CBK063559]  112%
89. C[C@H](Nc1nc(-c2cccc(C(=O)NCCN(C)C)c2)cnc1N)c1ccccc1 [CBK063714]  112%
90. COc1ccc(-c2cnc(N)c(NCCCN3CCOCC3)n2)c(OC)c1OC [CBK063676]  113%
91. Nc1ncc(-c2cccc(OC(F)(F)F)c2)nc1-c1ccc(F)c(Cl)c1 [CBK064021]  113%
92. COCCNc1nc(-c2cccc(C(N)=O)c2)cnc1N [CBK063901]  115%
93. COCCNc1nc(-c2ccc(F)cc2)cnc1N [CBK063591]  116%
